In test [1] the test system is Saccharomyces eubayanus_SOA2. The experiment in a line: lag phase before growth; higher = slower start of growth. The note with it: sulfur source concentration 200 µM; S. cerevisiae S288C/BY sul1Δ sul2Δ soa1Δ with transporter ortholog inserted at SOA1 locus; sulfur-free B medium, 4% glucose, pH 6.5, sole sulfur source.
Test [2] deals with Saccharomyces uvarum_SOA2. The experiment in a line: maximal growth rate with compound as sole sulfur source (OD600 per h); higher = better growth / uptake of the sulfur source. The conditions noted are these: S. cerevisiae S288C/BY sul1Δ sul2Δ soa1Δ with transporter ortholog inserted at SOA1 locus, sulfur-free B medium, 4% glucose, pH 6.5, sole sulfur source.
In test [3] the test system is Aspergillus nidulans_XP_661733. The test is described as above. The conditions noted are these: S. cerevisiae S288C/BY sul1Δ sul2Δ soa1Δ with transporter ortholog inserted at SOA1 locus, sulfur-free B medium, 4% glucose, pH 6.5, sole sulfur source.
Test [4] has as its system Aspergillus nidulans_XP_660563. Described as above. The note with it: S. cerevisiae S288C/BY sul1Δ sul2Δ soa1Δ with transporter ortholog inserted at SOA1 locus, sulfur-free B medium, 4% glucose, pH 6.5, sole sulfur source.
Test [5] has as its system Saccharomyces eubayanus_SOA2. Described as above. The note with it: S. cerevisiae S288C/BY sul1Δ sul2Δ soa1Δ with transporter ortholog inserted at SOA1 locus, sulfur-free B medium, 4% glucose, pH 6.5, sole sulfur source.
Test [6] concerns Aspergillus nidulans_XP_681611. Described as above. The note with it: S. cerevisiae S288C/BY sul1Δ sul2Δ soa1Δ with transporter ortholog inserted at SOA1 locus, sulfur-free B medium, 4% glucose, pH 6.5, sole sulfur source.
The test system of test [7] is Aspergillus nidulans_CBF74694. Described as above. The note with it: S. cerevisiae S288C/BY sul1Δ sul2Δ soa1Δ with transporter ortholog inserted at SOA1 locus, sulfur-free B medium, 4% glucose, pH 6.5, sole sulfur source.
Test [8] relates to Ogataea parapolymorpha_XP_013932458. Described as above. The conditions noted are these: S. cerevisiae S288C/BY sul1Δ sul2Δ soa1Δ with transporter ortholog inserted at SOA1 locus, sulfur-free B medium, 4% glucose, pH 6.5, sole sulfur source.
Test [9] deals with Fusarium oxysporum_ENH65823. Described as above. The conditions noted are these: S. cerevisiae S288C/BY sul1Δ sul2Δ soa1Δ with transporter ortholog inserted at SOA1 locus, sulfur-free B medium, 4% glucose, pH 6.5, sole sulfur source.
The test system of test [10] is Aspergillus nidulans_XP_661711. The description is as above. The note with it: S. cerevisiae S288C/BY sul1Δ sul2Δ soa1Δ with transporter ortholog inserted at SOA1 locus, sulfur-free B medium, 4% glucose, pH 6.5, sole sulfur source.
In test [11] the test system is Aspergillus nidulans_XP_660670. The description is as above. The note with it: S. cerevisiae S288C/BY sul1Δ sul2Δ soa1Δ with transporter ortholog inserted at SOA1 locus, sulfur-free B medium, 4% glucose, pH 6.5, sole sulfur source.
The test system of test [12] is Saccharomyces cerevisiae_SOA1. Described as above. The conditions noted are these: S. cerevisiae S288C/BY sul1Δ sul2Δ soa1Δ with transporter ortholog inserted at SOA1 locus, sulfur-free B medium, 4% glucose, pH 6.5, sole sulfur source.
For another test, the system named is soa1 del. The test is described as above. The conditions noted are these: S. cerevisiae S288C/BY sul1Δ sul2Δ soa1Δ with transporter ortholog inserted at SOA1 locus, sulfur-free B medium, 4% glucose, pH 6.5, sole sulfur source.
For test [13], the system named is Aspergillus nidulans_XP_661733. Kind of test: lag phase before growth; higher = slower start of growth. The note with it: sulfur source concentration 40000 µM; S. cerevisiae S288C/BY sul1Δ sul2Δ soa1Δ with transporter ortholog inserted at SOA1 locus; sulfur-free B medium, 4% glucose, pH 6.5, sole sulfur source.
For test [14], the system named is Aspergillus nidulans (IAM 2006)_astA. Described as above. The note with it: S. cerevisiae S288C/BY sul1Δ sul2Δ soa1Δ with transporter ortholog inserted at SOA1 locus, sulfur-free B medium, 4% glucose, pH 6.5, sole sulfur source.
For test [15], the system named is Metarhizium robertsii_XP_007823832. Described as above. The conditions noted are these: S. cerevisiae S288C/BY sul1Δ sul2Δ soa1Δ with transporter ortholog inserted at SOA1 locus, sulfur-free B medium, 4% glucose, pH 6.5, sole sulfur source.
[16] abbreviates: sulfur source concentration 200 µM.
Setting [17] is: sulfur source concentration 40000 µM.

This note sets out measurements from the supplement of paper PMC5303821, “Major sulfonate transporter Soa1 in Saccharomyces cerevisiae and considerable substrate diversity in its fungal family” (Nature Communications, 2017).

SMILES strings stand for the structures.

As to `CCCCS(=O)(=O)O` [Butanesulfonate], the “lag phase before growth” value in [1] was found to be 10.1 h. Further, the maximal growth rate was found to be 0.0878 in test [2] (setting [16]); 0.00595 in [3] (setting [16]); 0.00657 in [4] (setting [16]); 0.0837 in test [5] (setting [16]); 0.00666 in [6] (setting [16]); 0.00269 in test [7] (setting [16]). For the same compound, the maximal growth rate in test [8] (setting [16]) was found to be 0.00411; in [9] (setting [16]), 0.00349; in test [10] (setting [16]) it was 0.00392; in test [11] (setting [16]), 0.00393; in [12] (setting [16]) it was 0.0882; in the test on soa1 del (setting [16]), 0.00398.

On to `CCS(=O)(=O)O` [Ethanesulfonate], for which the “lag phase before growth” value in test [1] is 13.1 h. Moreover, the maximal growth rate is 0.081 in test [2] (setting [16]); 0.00379 in test [3] (setting [16]); 0.00579 in test [4] (setting [16]); 0.0754 in test [5] (setting [16]); 0.00641 in test [6] (setting [16]); 0.00278 in [7] (setting [16]). Moreover, the maximal growth rate in [8] (setting [16]) was 0.00424; in test [9] (setting [16]), 0.00347; in test [10] (setting [16]), 0.00368; in test [11] (setting [16]) it was 0.0037; in test [12] (setting [16]), 0.076; in the test on soa1 del (setting [16]) it was 0.00466.

In the case of `CCCS(=O)(=O)O` [Propanesulfonate], in test [1], the “lag phase before growth” value is 14 h. Further, the maximal growth rate amounted to 0.0773 in test [2] (setting [16]); 0.00555 in [3] (setting [16]); 0.00627 in test [4] (setting [16]); 0.0792 in test [5] (setting [16]); 0.00692 in test [6] (setting [16]); 0.00267 in test [7] (setting [16]). The maximal growth rate turned out to be 0.0042 in test [8] (setting [16]); 0.00365 in test [9] (setting [16]); 0.00399 in test [10] (setting [16]); 0.00401 in test [11] (setting [16]); 0.0797 in test [12] (setting [16]); 0.00415 in the test on soa1 del (setting [16]).

Regarding `O=S(=O)(O)O` [sulfate], the “lag phase before growth” value in test [13] is 39.2 h; in test [14] (setting [16]), 6.92 h; in test [14] (setting [17]) it was 7.29 h; in [15] (setting [16]) it was 8.36 h; in test [15] (setting [17]), 11.7 h. The maximal growth rate in [2] (setting [16]) stood at 0.00324; in [2] (setting [17]) it was 0.00336; in test [3] (setting [16]), 0.00457; in test [3] (setting [17]), 0.0588; in test [4] (setting [16]), 0.00621; in test [4] (setting [17]) it was 0.00638. The maximal growth rate in [5] (setting [16]) was 0.00313; in [5] (setting [17]), 0.00349; in test [6] (setting [16]) it was 0.00615; in test [6] (setting [17]), 0.0061; in [7] (setting [16]), 0.00273; in test [7] (setting [17]) it was 0.00346. Further, the maximal growth rate in test [8] (setting [16]) was 0.00477; in test [8] (setting [17]) it was 0.00353; in test [9] (setting [16]) it was 0.00376; in [9] (setting [17]), 0.0142; in test [10] (setting [16]) it was 0.00398; in test [10] (setting [17]), 0.00545. For the same compound, the maximal growth rate was 0.00401 in test [11] (setting [16]); 0.00492 in test [11] (setting [17]); 0.00588 in test [12] (setting [16]); 0.123 in [12] (setting [17]); 0.00368 in the test with soa1 del (setting [16]); 0.0039 with soa1 del (setting [17]).
